Reference: PubChem BioAssay AID504508 (Sanford-Burnham Center for Chemical Genomics, 2011)

These compounds were tested on 697 B-cell NF-kB luciferase reporter, PMA/ionomycin, 16 h (assay: inhibitors of antigen receptor-driven NF-kB signaling, SAR follow-up, B-cell specific, 697 cells, luminescence, set 2 (AID 504508)).

IC50, active:
CCOc1ccc(-c2nc(CSCC(N)=O)c(C)o2)cc1 80 nM
CCCOc1ccc(-c2nc(CSCC(=O)NC3CC3)c(C)o2)cc1 90 nM
CC(C)c1ccc(-c2noc(CCC(=O)NC3CC3)n2)cc1 250 nM
CCCOc1ccc(-c2nc(CSCC(=O)O)c(C)o2)cc1 40 nM
CCCCc1ccc(-c2noc(CCC(=O)NC)n2)cc1 110 nM
Cc1oc(-c2ccc(OC(F)(F)F)cc2)nc1CSCC(=O)O 190 nM
CCCCOc1ccc(-c2nc(CSCC(=O)O)c(C)o2)cc1 80 nM
C#CCNC(=O)CSCc1nc(-c2ccc(OCC)cc2)oc1C 60 nM
CCCOc1ccc(-c2nc(CSCC(=O)NCc3ccco3)c(C)o2)cc1 90 nM
CCCCc1ccc(-c2noc(CCC(=O)NCC)n2)cc1 130 nM
CCOc1ccc(-c2nc(CSCC(=O)O)c(C)o2)cc1 50 nM
